In general, IC50 refers to the point on the concentration scale where inhibition reaches its midpoint.

This experiment deals with T1, AR (Homo sapiens, UniProt P10275, T878A).
T1 construct: into the androgen-dependent PCa cells (LNCaP); endogenous in cells; host or cells: LNCaP-ARR2PB-eGFP
T1 sequence (P10275 1-920 T878A): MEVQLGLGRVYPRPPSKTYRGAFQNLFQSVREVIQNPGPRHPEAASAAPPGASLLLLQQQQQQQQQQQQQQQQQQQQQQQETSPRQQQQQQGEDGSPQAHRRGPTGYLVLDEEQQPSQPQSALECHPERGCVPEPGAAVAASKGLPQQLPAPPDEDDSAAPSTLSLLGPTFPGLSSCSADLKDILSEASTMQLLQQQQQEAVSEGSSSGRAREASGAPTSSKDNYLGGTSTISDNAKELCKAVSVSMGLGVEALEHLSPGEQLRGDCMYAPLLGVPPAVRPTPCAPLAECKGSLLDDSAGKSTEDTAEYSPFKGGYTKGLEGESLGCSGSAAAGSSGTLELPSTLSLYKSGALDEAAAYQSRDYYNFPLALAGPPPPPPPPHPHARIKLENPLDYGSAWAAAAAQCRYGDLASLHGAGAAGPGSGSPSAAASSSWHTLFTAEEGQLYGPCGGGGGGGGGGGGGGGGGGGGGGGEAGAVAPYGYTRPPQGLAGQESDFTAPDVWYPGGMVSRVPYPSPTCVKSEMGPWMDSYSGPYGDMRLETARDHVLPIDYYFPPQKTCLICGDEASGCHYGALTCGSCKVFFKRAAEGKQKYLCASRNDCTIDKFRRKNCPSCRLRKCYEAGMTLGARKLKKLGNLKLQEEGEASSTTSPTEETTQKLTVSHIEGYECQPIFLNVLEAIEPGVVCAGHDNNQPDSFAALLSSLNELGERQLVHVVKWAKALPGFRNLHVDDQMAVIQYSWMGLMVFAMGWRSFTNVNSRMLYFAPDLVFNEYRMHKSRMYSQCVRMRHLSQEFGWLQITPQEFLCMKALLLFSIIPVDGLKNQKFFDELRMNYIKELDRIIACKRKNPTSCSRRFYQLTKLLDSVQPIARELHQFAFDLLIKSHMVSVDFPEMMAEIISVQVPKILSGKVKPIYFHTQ
The experiment is described as follows: AR transcriptional activity, LNCaP-ARR2PB-eGFP reporter cells. The class given is cell-based. The note with it: read-out: IC50 AR transcriptional activities. The text has this:
Detection principles: We conducted a stable transfection of promoter ARR2PB known for its strong AR responsiveness, into the androgen-dependent PCa cells (LNCaP). The expression of enhanced green fluorescent protein (eGFP) is depending on the degree of activation of AR. Therefore, LNCaP-ARR2PB-eGFP cell line could quantitatively determine the AR antagonistic activities of the compounds by evaluating the expression of eGFP.
Regarding `Cc1oc(-c2cccc(OC(F)F)c2)cc1C(=O)Nc1nc(CN2CCCCC2)ns1` [Compound A-129, 5-(3-(Difluoromethoxy)phenyl)-2-methyl-N-(3-(piperidin-1-ylmethyl)-1,2,4-thiadiazol-5-yl)furan-3-carboxamide], the IC50 turned out to be 0.06 µM. In the case of `Cc1oc(-c2cccc(OC(F)F)c2)cc1C(=O)Nc1nc(CN2CCOCC2)ns1` [Compound A-130, 5-(3-(Difluoromethoxy)phenyl)-2-methyl-N-(3-(morpholinomethyl)-1,2,4-thiadiazol-5-yl)furan-3-carboxamide] it was 0.67 µM; in that of `Cc1oc(-c2cccc(OC(F)F)c2)cc1C(=O)Nc1nc(CN2CCN(C)CC2)ns1` [Compound A-131, 5-(3-(Difluoromethoxy)phenyl)-2-methyl-N-(3-((4-methylpiperazin-1-yl)methyl)-1,2,4-thiadiazol-5-yl)furan-3-carboxamide], 1.42 µM; in that of `CC(=O)Cc1nsc(NC(=O)c2coc(-c3cccc(C(F)(F)F)c3)c2)n1` [Compound B-1, N-(3-(2-oxopropyl)-1,2,4-thiadiazol-5-yl)-5-(3-(trifluoromethyl)phenyl)furan-3-carboxamide], 18.6 µM.

In the case of `CC(=O)Cc1nsc(NC(=O)c2coc(-c3cccc(C#N)c3)c2)n1` [Compound B-2, 5-(3-Cyanophenyl)-N-(3-(2-oxopropyl)-1,2,4-thiadiazol-5-yl)furan-3-carboxamide], the concentration for half-maximal inhibition (IC50) was determined as 54.9 µM. For the molecule `COc1cccc(-c2cc(C(=O)Nc3nc(CC(C)=O)ns3)co2)c1` [Compound B-3, 5-(3-Methoxyphenyl)-N-(3-(2-oxopropyl)-1,2,4-thiadiazol-5-yl)furan-3-carboxamide], the IC50 turned out to be 12.6 µM.

For `CC(=O)Cc1nsc(NC(=O)c2coc(-c3cccc(OC(F)(F)F)c3)c2)n1` [Compound B-4, N-(3-(2-oxopropyl)-1,2,4-thiadiazol-5-yl)-5-(3-(trifluoromethoxy)phenyl)furan-3-carboxamide], the IC50 turned out to be 32.5 µM. The result for `CC(=O)Cc1nsc(NC(=O)c2coc(-c3cccc(OC(F)F)c3)c2)n1` [Compound B-5, 5-(3-(Difluoromethoxy)phenyl)-N-(3-(2-oxopropyl)-1,2,4-thiadiazol-5-yl)furan-3-carboxamide] reads 19.6 µM; that for `CC(Cc1nsc(NC(=O)c2coc(-c3cccc(C(F)(F)F)c3)c2)n1)N(C)C` (centres unmarked) [Compound B-6, N-(3-(2-(dimethylamino)propyl)-1,2,4-thiadiazol-5-yl)-5-(3-(trifluoromethyl)phenyl) furan-3-carboxamide], 11.8 µM. Consider `CCN(CC)C(C)Cc1nsc(NC(=O)c2coc(-c3cccc(C(F)(F)F)c3)c2)n1` (centres unmarked) [Compound B-7, N-(3-(2-(diethylamino)propyl)-1,2,4-thiadiazol-5-yl)-5-(3-(trifluoromethyl)phenyl)furan-3-carboxamide], for which the IC50 was found to be 15 µM. On to `CC(Cc1nsc(NC(=O)c2coc(-c3cccc(C#N)c3)c2)n1)N1CCCC1` (centres unmarked) [Compound B-12, 5-(3-Cyanophenyl)-N-(3-(2-(pyrrolidin-1-yl)propyl)-1,2,4-thiadiazol-5-yl)furan-3-carboxamide], for which the IC50 was determined as 23.3 µM.

As for `COc1cccc(-c2cc(C(=O)Nc3nc(CC(C)N4CCCCC4)ns3)co2)c1` (centres unmarked) [Compound B-14, 5-(3-Methoxyphenyl)-N-(3-(2-(piperidin-1-yl)propyl)-1,2,4-thiadiazol-5-yl)furan-3-carboxamide], the concentration for half-maximal inhibition (IC50) amounted to 33.6 µM. Take `CC(Cc1nsc(NC(=O)c2coc(-c3cccc(OC(F)(F)F)c3)c2)n1)N1CCOCC1` (centres unmarked) [Compound B-16, N-(3-(2-morpholinopropyl)-1,2,4-thiadiazol-5-yl)-5-(3-(trifluoromethoxy)phenyl)furan-3-carboxamide]: the 50% inhibitory concentration (IC50) is 35.7 µM.

Take `CC(Cc1nsc(NC(=O)c2coc(-c3cccc(OC(F)F)c3)c2)n1)N1CCN(C)CC1` (centres unmarked) [Compound B-19, 5-(3-(Difluoromethoxy)phenyl)-N-(3-(2-(4-methylpiperazin-1-yl)propyl)-1,2,4-thiadiazol-5-yl)furan-3-carboxamide]: the IC50 worked out at 59.3 µM. In the case of `CC(O)Cc1nsc(NC(=O)c2coc(-c3cccc(C(F)(F)F)c3)c2)n1` (centres unmarked) [Compound B-20, N-(3-(2-hydroxypropyl)-1,2,4-thiadiazol-5-yl)-5-(3-(trifluoromethyl)phenyl)furan-3-carboxamide] it was 11.5 µM; in that of `CC(O)(Cc1nsc(NC(=O)c2coc(-c3cccc(C(F)(F)F)c3)c2)n1)C(F)(F)F` (centres unmarked) [Compound B-25, N-(3-(3,3,3-trifluoro-2-hydroxy-2-methylpropyl)-1,2,4-thiadiazol-5-yl)-5-(3-(trifluoro-methyl)phenyl)furan-3-carboxamide], 15.5 µM.

As for `CC(Cc1nsc(NC(=O)c2coc(-c3cccc(C(F)(F)F)c3)c2)n1)=C(F)F` [Compound B-30, N-(3-(3,3-difluoro-2-methylallyl)-1,2,4-thiadiazol-5-yl)-5-(3-(trifluoromethyl)phenyl) furan-3-carboxamide], the concentration for half-maximal inhibition (IC50) was 4.93 µM. On to `CC(F)(F)Cc1nsc(NC(=O)c2coc(-c3cccc(C(F)(F)F)c3)c2)n1` [Compound B-35, N-(3-(2,2-difluoropropyl)-1,2,4-thiadiazol-5-yl)-5-(3-(trifluoromethyl)phenyl)furan-3-carboxamide], for which the half-maximal inhibitory concentration (IC50) came to 14.5 µM. The result for `O=C(Nc1nc(CCl)ns1)c1coc(-c2cccc(C(F)(F)F)c2)c1` [Compound B-40, N-(3-(chloromethyl)-1,2,4-thiadiazol-5-yl)-5-(3-(trifluoromethyl)phenyl)furan-3-carboxamide] reads 12.3 µM. Take `CN(C)Cc1nsc(NC(=O)c2coc(-c3cccc(C#N)c3)c2)n1` [Compound B-47, 5-(3-Cyanophenyl)-N-(3-((dimethylamino)methyl)-1,2,4-thiadiazol-5-yl)furan-3-carboxamide]: the IC50 amounted to 18.6 µM.

For `CCN(CC)Cc1nsc(NC(=O)c2coc(-c3cccc(OC)c3)c2)n1` [Compound B-50, N-(3-((diethylamino)methyl)-1,2,4-thiadiazol-5-yl)-5-(3-methoxyphenyl)furan-3-carboxamide], the IC50 was 22.9 µM. Regarding `O=C(Nc1nc(CN2CCCCC2)ns1)c1coc(-c2cccc(OC(F)F)c2)c1` [Compound B-56, 5-(3-(Difluoromethoxy)phenyl)-N-(3-(piperidin-1-ylmethyl)-1,2,4-thiadiazol-5-yl)furan-3-carboxamide], the IC50 was 28.3 µM.

For the molecule `O=C(Nc1nc(CN2CCOCC2)ns1)c1coc(-c2cccc(OC(F)F)c2)c1` [Compound B-57, 5-(3-(Difluoromethoxy)phenyl)-N-(3-(morpholinomethyl)-1,2,4-thiadiazol-5-yl)furan-3-carboxamide], the IC50 was 23.5 µM.

Take `CN1CCN(Cc2nsc(NC(=O)c3coc(-c4cccc(OC(F)F)c4)c3)n2)CC1` [Compound B-58, 5-(3-(Difluoromethoxy)phenyl)-N-(3-((4-methylpiperazin-1-yl)methyl)-1,2,4-thiadiazol-5-yl)furan-3-carboxamide]: the IC50 amounted to 32.6 µM.

Take `CC(=O)Cc1nsc(NC(=O)c2cc(-c3cccc(C(F)(F)F)c3)sc2C)n1` [Compound C-1, 2-Methyl-N-(3-(2-oxopropyl)-1,2,4-thiadiazol-5-yl)-5-(3-(trifluoromethyl)phenyl)thiophene-3-carboxamide]: the IC50 was determined as 9.33 µM. Turning to `CC(=O)Cc1nsc(NC(=O)c2cc(-c3cccc(C#N)c3)sc2C)n1` [Compound C-2, 5-(3-Cyanophenyl)-2-methyl-N-(3-(2-oxopropyl)-1,2,4-thiadiazol-5-yl)thiophene-3-carboxamide], the half-inhibitory concentration (IC50) is 33.3 µM. The result for `COc1cccc(-c2cc(C(=O)Nc3nc(CC(C)=O)ns3)c(C)s2)c1` [Compound C-3, 5-(3-Methoxyphenyl)-2-methyl-N-(3-(2-oxopropyl)-1,2,4-thiadiazol-5-yl)thiophene-3-carboxamide] reads 43.7 µM; that for `CC(=O)Cc1nsc(NC(=O)c2cc(-c3cccc(OC(F)(F)F)c3)sc2C)n1` [Compound C-4, 2-Methyl-N-(3-(2-oxopropyl)-1,2,4-thiadiazol-5-yl)-5-(3-(trifluoromethoxy)phenyl)thiophene-3-carboxamide], 25.1 µM. The result for `CC(=O)Cc1nsc(NC(=O)c2cc(-c3cccc(OC(F)F)c3)sc2C)n1` [Compound C-5, 5-(3-(Difluoromethoxy)phenyl)-2-methyl-N-(3-(2-oxopropyl)-1,2,4-thiadiazol-5-yl)thiophene-3-carboxamide] reads 49.3 µM.

The record behind these values is patent US20240376091A1, “THIADIAZOLEAMIDE DERIVATIVES AND THEIR APPLICATIONS” (ZHEJIANG UNIVERSITY, priority 2021, published 2024).
